# The source made the active and inactive calls. The rule behind the calls is not given here.
# What was measured:
# THP-1 [1] = test: Immunomodulatory activity in PMA-differentiated human THP1 cells assessed as increase in TNFalpha production by measuring TNFalpha level at 15 uM incubated for 24 hrs by ELISA; type: functional
# THP-1 [2] = test: Immunomodulatory activity in PMA-differentiated human THP1 cells assessed as increase in ICAM1 expression by measuring fluorescence intensity at 20 uM incubated for 21 hrs by immunostaining and flow cytometry (reference value: 602.95 No unit); type: functional
# THP-1 [3] = test: Toxicity in PMA-differentiated human THP1 cells assessed as cell death at 0.1 to 64 uM by trypan blue dye based assay; settings: thp-1, 64 µM
# THP-1 [4] = test: Immunomodulatory activity in human THP1 cells assessed as increase in LPS-induced ICAM1 expression at 1 to 32 uM uM incubated for 21 hrs by immunostaining and flow cytometry; type: functional, cell-based
# THP-1 [5] = test: Immunomodulatory activity in PMA-differentiated human THP1 cells assessed as increase in TNFalpha production at 1 to 30 uM incubated for 24 hrs by ELISA; type: functional, cell-based
# THP-1 [6] = test: Immunomodulatory activity in human THP1 cells assessed as increase in LPS-induced ICAM1 expression at 16 uM uM incubated for 21 hrs by immunostaining and flow cytometry; type: functional
# THP-1 [7] = test: (§1) Immunomodulatory activity in PMA-differentiated human THP1 cells assessed as increase in LPS-induced ICAM1 expression by measuring fluorescence intensity at =>16 uM pre-incubated for 1 hr before LPS stimulation and further incubated for 20 hrs by immunostaining and flow cytometry relative to LPS alone; type: functional, cell-based
# THP-1 [8] = test: as §1, with “<=4” for “=>16”; type: functional, cell-based
# THP-1 [9] = test: Immunomodulatory activity in human THP1 cells assessed as increase in ICAM1 expression at 20 uM incubated for 21 hrs by immunostaining and flow cytometry; type: functional, cell-based
# THP-1 [10] = test: Immunomodulatory activity in PMA-differentiated human THP1 cells assessed as increase in LPS-induced ICAM1 expression by measuring fluorescence intensity at 8 uM pre-incubated for 1 hr before LPS stimulation and further incubated for 20 hrs by immunostaining and flow cytometry relative to LPS alone; type: functional
# THP-1 [11] = test: Immunomodulatory activity in PMA-differentiated human THP1 cells assessed as increase in TNFalpha production at 30 uM incubated for 24 hrs by ELISA; type: functional, cell-based
# THP-1 [12] = test: Immunomodulatory activity in PMA-differentiated human THP1 cells assessed as increase in LPS-induced ICAM1 expression by measuring fluorescence intensity at 20 uM pre-incubated for 1 hr before LPS stimulation and further incubated for 20 hrs by immunostaining and flow cytometry relative to LPS alone; type: functional, cell-based
Compound,Activity (THP-1 [1]),Flu intensity (THP-1 [2]),Activity (THP-1 [3]),Activity (THP-1 [4]),Activity (THP-1 [5]),Activity (THP-1 [6]),Activity (THP-1 [7]),Activity (THP-1 [8]),Activity (THP-1 [9]),Activity (THP-1 [10]),Activity (THP-1 [11]),Activity (THP-1 [12])
CCCCCCNC(=O)CC[C@@H](NC(=O)[C@H](C)NC(=O)COc1cccc(N(CCCO)CCCO)c1)C(N)=O,3606 pg/mL,777.29,Non-Toxic,Active,Active,<=46%,inactive,Active,Active,<=33%,inactive,
CCCCCCNC(=O)CC[C@@H](NC(=O)[C@H](C)NC(=O)COc1cccc(NCCCO)c1)C(N)=O,3622 pg/mL,885.76,,Active,Active,,,,Active,,inactive,
CCCCOC(=O)[C@@H](CCC(N)=O)NC(=O)[C@H](C)NC(=O)[C@@H](C)O[C@H]1[C@H](O)[C@@H](CO)OC(O)[C@@H]1NC(C)=O (some centres not stated) [MURABUTIDE],2694 pg/mL,1436.05,,,,,,,Active,,inactive,Active

# From ChEMBL document CHEMBL4130486, “Design, synthesis and immunological evaluation of novel amphiphilic desmuramyl peptides” (Eur J Med Chem, 2017)
